One test deals with SREBP-2 (Homo sapiens (Human), UniProt Q12772). In words: In vitro assay SREBP-2: PathHunter U2OS SREBP-2 Nuclear Translocation Cell Line, U18666A-stimulated. Format: cell-based.
In another test the target is LXRβ (Homo sapiens (Human), UniProt P55055). In words: In vitro assay LXRβ: PathHunter NHR CHO cells, LXRβ / Steroid Receptor Co-activator Peptide enzyme fragment complementation. The settings on record: PathHunter NHR CHO cells, full-length human LXRβ and SRCP, chemiluminescent signal; read-out: LXRβ PPI. Format: cell-based. Summed up: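 Enzyme fragment complementation read-out: CHO cells stably expressing ProLink-tagged full-length human LXRβ plus nuclear enzyme acceptor–SRCP fusion, seeded and held overnight at 37° C. Medium with charcoal-dextran filtered serum; final vehicle 1%. Chemiluminescence measured after signal generation.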
Chain of LXRβ (P55055 whole entry, the tested form may be a part): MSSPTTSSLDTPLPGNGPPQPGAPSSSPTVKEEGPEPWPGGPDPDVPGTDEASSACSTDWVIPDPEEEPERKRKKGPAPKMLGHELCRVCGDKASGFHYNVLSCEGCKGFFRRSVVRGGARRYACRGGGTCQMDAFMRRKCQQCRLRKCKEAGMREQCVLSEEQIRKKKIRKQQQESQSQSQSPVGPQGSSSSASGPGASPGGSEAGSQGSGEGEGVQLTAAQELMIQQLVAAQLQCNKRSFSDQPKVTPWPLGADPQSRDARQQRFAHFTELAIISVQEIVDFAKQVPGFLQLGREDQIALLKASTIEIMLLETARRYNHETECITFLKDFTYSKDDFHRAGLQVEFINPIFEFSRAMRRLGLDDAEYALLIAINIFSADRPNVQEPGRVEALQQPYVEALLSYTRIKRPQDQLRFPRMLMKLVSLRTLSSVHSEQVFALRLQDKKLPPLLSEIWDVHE

The mark [1] stands for this setting: PathHunter U2OS SREBP-2 nuclear translocation cells, U18666A 10 μM, overnight (16 hours).

The structures appear in SMILES notation. Read-outs that look alike come from different tables or passages of the source.

As a reminder, the IC50 is the concentration that gives 50% inhibition. Low readings indicate inhibition by little substance, high ones a need for much substance. In turn, `Cc1cc(N2CCN(C(=O)CC[C@@H](C)[C@H]3CC[C@H]4[C@@H]5CC=C6C[C@@H](O)CC[C@]6(C)[C@H]5CC[C@]34C)CC2)ncn1` [Example 206, (4R)-4-[(1R,3aS,3bS,7S,9aR,9bS,11aR)-7-hydroxy-9a,11a-dimethyl-1H,2H,3H,3aH,3bH,4H,6H,7H,8H,9H,9aH,9bH,10H,11H,11aH-cyclopenta[a]phenanthren-1-yl]-1-[4-(6-methylpyrimidin-4-yl)piperazin-1-yl]pentan-1-one] returned a half-inhibitory concentration (IC50) on SREBP-2 (setting [1]) of under 250 nM. Besides, the EC50 on LXRβ was over 10 µM.

In the case of `C[C@H](CCC(=O)N1CCN(C(=O)N2CCCC2)CC1)[C@H]1CC[C@H]2[C@@H]3CC=C4C[C@@H](O)CC[C@]4(C)[C@H]3CC[C@]12C` [Example 207, (R)-4-((3S,8S,9S,10R,13R,14S,17R)-3-hydroxy-10,13-dimethyl-2,3,4,7,8,9,10,11,12,13,14,15,16,17-tetradecahydro-1H-cyclopenta[a]phenanthren-17-yl)-1-(4-(pyrrolidine-1-carbonyl)piperazin-1-yl) pentan-1-one], at SREBP-2 (setting [1]), the IC50 was under 250 nM. For the same molecule, the EC50 at LXRβ was over 10 µM.

Consider `C[C@H](CCC(=O)N1CCN(C(=O)N2CCC2)CC1)[C@H]1CC[C@H]2[C@@H]3CC=C4C[C@@H](O)CC[C@]4(C)[C@H]3CC[C@]12C` [Example 208, (R)-1-(4-(azetidine-1-carbonyl)piperazin-1-yl)-4-((3S,8S,9S,10R,13R,14S,17R)-3-hydroxy-10,13-dimethyl-2,3,4,7,8,9,10,11,12,13,14,15,16,17-tetradecahydro-1H-cyclopenta[a]phenanthren-17-yl)pentan-1-one], for which the IC50 at SREBP-2 (setting [1]) was under 250 nM. Also, the EC50 on LXRβ is over 10 µM.

Consider `COCCN(C)C(=O)N1CCN(C(=O)CC[C@@H](C)[C@H]2CC[C@H]3[C@@H]4CC=C5C[C@@H](O)CC[C@]5(C)[C@H]4CC[C@]23C)CC1` [Example 209, 4-((R)-4-((3S,8S,9S,10R,13R,14S,17R)-3-hydroxy-10,13-dimethyl-2,3,4,7,8,9,10,11,12,13,14,15,16,17-tetradecahydro-1H-cyclopenta[a]phenanthren-17-yl)pentanoyl)-N-(2-methoxyethyl)-N-methylpiperazine-1-carboxamide], for which the IC50 on SREBP-2 was under 250 nM. The EC50 on LXRβ was over 10 µM.

`C[C@H](CCC(=O)N1CCN(C(=O)N(C)CC2CC2)CC1)[C@H]1CC[C@H]2[C@@H]3CC=C4C[C@@H](O)CC[C@]4(C)[C@H]3CC[C@]12C` [Example 210, N-(cyclopropylmethyl)-4-((R)-4-((3S,8S,9S,10R,13R,14S,17R)-3-hydroxy-10,13-dimethyl-2,3,4,7,8,9,10,11,12,13,14,15,16,17-tetradecahydro-1H-cyclopenta[a]phenanthren-17-yl)pentanoyl)-N-methylpiperazine-1-carboxamide] registered an IC50 against SREBP-2 (setting [1]) of under 250 nM. On LXRβ, the EC50 is over 10 µM.

Consider `C[C@H](CCC(=O)N1CCN(C(=O)N(C)C2CC2)CC1)[C@H]1CC[C@H]2[C@@H]3CC=C4C[C@@H](O)CC[C@]4(C)[C@H]3CC[C@]12C` [Example 211, N-cyclopropyl-4-((R)-4-((3S,8S,9S,10R,13R,14S,17R)-3-hydroxy-10,13-dimethyl-2,3,4,7,8,9,10,11,12,13,14,15,16,17-tetradecahydro-1H-cyclopenta[a]phenanthren-17-yl)pentanoyl)-N-methylpiperazine-1-carboxamide], for which the IC50 at SREBP-2 was under 250 nM. Moreover, on LXRβ, the EC50 was over 10 µM.

In the case of `CCN(CC)C(=O)N1CCN(C(=O)CC[C@@H](C)[C@H]2CC[C@H]3[C@@H]4CC=C5C[C@@H](O)CC[C@]5(C)[C@H]4CC[C@]23C)CC1` [Example 212, N,N-diethyl-4-((R)-4-((3S,8S,9S,10R,13R,14S,17R)-3-hydroxy-10,13-dimethyl-2,3,4,7,8,9,10,11,12,13,14,15,16,17-tetradecahydro-1H-cyclopenta[a]phenanthren-17-yl)pentanoyl)piperazine-1-carboxamide], the IC50 against SREBP-2 (setting [1]) is under 250 nM. In addition, on LXRβ, the EC50 is over 10 µM.

Turning to `CCN(C)C(=O)N1CCN(C(=O)CC[C@@H](C)[C@H]2CC[C@H]3[C@@H]4CC=C5C[C@@H](O)CC[C@]5(C)[C@H]4CC[C@]23C)CC1` [Example 213, N-ethyl-4-((R)-4-((3S,8S,9S,10R,13R,14S,17R)-3-hydroxy-10,13-dimethyl-2,3,4,7,8,9,10,11,12,13,14,15,16,17-tetradecahydro-1H-cyclopenta[a]phenanthren-17-yl)pentanoyl)-N-methylpiperazine-1-carboxamide], the IC50 at SREBP-2 (setting [1]) is under 250 nM. Also, the EC50 at LXRβ was over 10 µM.

`C[C@H](CCC(=O)N1CCC(CNC(=O)C(C)(C)O)CC1)[C@H]1CC[C@H]2[C@@H]3CC=C4C[C@@H](O)CC[C@]4(C)[C@H]3CC[C@]12C` [Example 228, 2-hydroxy-N-((1-((R)-4-((3S,8S,9S,10R,13R,14S,17R)-3-hydroxy-10,13-dimethyl-2,3,4,7,8,9,10,11,12,13,14,15,16,17-tetradecahydro-1H-cyclopenta[a]phenanthren-17-yl)pentanoyl)piperidin-4-yl)methyl)-2-methylpropanamide] gave an IC50 on SREBP-2 (setting [1]) of under 250 nM. For the same molecule, the EC50 on LXRβ is over 10 µM.

Take `COC(=O)N1CCN(C(=O)NC[C@@H](C)[C@H]2CC[C@H]3[C@@H]4CC=C5C[C@@H](O)CC[C@]5(C)[C@H]4CC[C@]23C)CC1` [Example 236, Methyl 4-(((S)-2-((3S,8S,9S,10R,13S,14S,17R)-3-hydroxy-10,13-dimethyl-2,3,4,7,8,9,10,11,12,13,14,15,16,17-tetradecahydro-1H-cyclopenta[a]phenanthren-17-yl)propyl)carbamoyl)piperazine-1-carboxylate]: the IC50 against SREBP-2 (setting [1]) was under 250 nM. Moreover, the EC50 on LXRβ is over 10 µM.

Take `CC(=N)N1CCN(C(=O)CC[C@@H](C)[C@H]2CC[C@H]3[C@@H]4CC=C5C[C@@H](O)CC[C@]5(C)[C@H]4CC[C@]23C)CC1` [Example 245, (R)-4-((3S,8S,9S,10R,13R,14S,17R)-3-hydroxy-10,13-dimethyl-2,3,4,7,8,9,10,11,12,13,14,15,16,17-tetradecahydro-1H-cyclopenta[a]phenanthren-17-yl)-1-(4-(1-iminoethyl)piperazin-1-yl)pentan-1-one]: the IC50 against SREBP-2 (setting [1]) is 250 to 1000 nM. Besides, at LXRβ, the EC50 is over 10 µM.

As for `C[C@H](CCc1ncccc1OCCO)[C@H]1CC[C@H]2[C@@H]3CC=C4C[C@@H](O)CC[C@]4(C)[C@H]3CC[C@]12C` [Example 246], on SREBP-2 (setting [1]), the IC50 is under 250 nM. For the same molecule, the EC50 at LXRβ was 0.25 to 1 µM.

On SREBP-2 (setting [1]), `CCOc1cccnc1CC[C@@H](C)[C@H]1CC[C@H]2[C@@H]3CC=C4C[C@@H](O)CC[C@]4(C)[C@H]3CC[C@]12C` [Example 247, (1R,3aS,3bS,7S,9aR,9bS,11aR)-1-[(2R)-4-(3-ethoxypyridin-2-yl)butan-2-yl]-9a,11a-dimethyl-1H,2H,3H,3aH,3bH,4H,6H,7H,8H,9H,9aH,9bH,10H,11H,11aH-cyclopenta[a]phenanthren-7-ol] came in with a half-maximal inhibitory concentration (IC50) of under 250 nM. At LXRβ, the EC50 lay in the range of 0.25 to 1 µM.

The values are drawn from US20230340011A1 (Asteroid Therapeutics, priority 2022, published 2023).
